Nine compounds from ChEMBL document CHEMBL1201862, “PubChem BioAssay data set” (2004) can be followed below.

Among the test systems are TK-10; KM12; RXF 393; U-251; SN12C; HT-29; SF-295; OVCAR-5; NCI-H460; NCI/ADR-RES; 786-0; Hs-578T; COLO 205; NCI-H522; RPMI-8226; HL-60; NCI-H23; SW-620; PC-3; SNB-19.
Common to all, as to experiment: inhibition of tumour cell growth, NCI panel, 48 h

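96-well plates; 48 h exposure; 5 concentrations. Endpoints by linear interpolation between flanking doses. Not reached: highest tested concentration assigned. Abbreviation: GI50, concentration required for 50% inhibition of growth.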 Calls of active or inactive are those of the source. No stated cut-off is given here; in the data, active = GI50 up to about 1.1 µM and inactive = higher.

`NS(=O)(=O)c1ccc(/N=N/c2ccc(O)c(C(=O)O)c2)cc1` [SALAZOSULFAMIDE]: the GI50 in the experiment with TK-10, in the experiment on KM12, in the experiment with RXF 393, with U-251, in the experiment on SN12C and in the experiment with HT-29 was > 100 µM (inactive) throughout. For the same compound, the GI50 in the experiment on SF-295 is > 100 µM (inactive); in the experiment with OVCAR-5, > 100 µM (inactive); in the experiment with NCI-H460, > 100 µM (inactive); in the experiment on NCI/ADR-RES, > 100 µM (inactive); in the experiment on 786-0 it was > 100 µM (inactive); with Hs-578T, 23.6 µM (inactive). Moreover, the GI50 is > 100 µM (inactive) with COLO 205; 82.4 µM (inactive) in the experiment on NCI-H522; > 100 µM (inactive) in the experiment with RPMI-8226; 29.1 µM (inactive) with HL-60; > 100 µM (inactive) in the experiment on NCI-H23; > 100 µM (inactive) in the experiment on SW-620. In addition, the GI50 in the experiment on PC-3 and in the experiment on SNB-19 was > 100 µM (inactive) in each case.

Regarding `COc1cc(/C=C/C=C2\CCC/C(=C\C=C\c3ccc(O)c(OC)c3)C2=O)ccc1O`, the GI50 with TK-10 is 8.34 µM (inactive); in the experiment with KM12, 24.7 µM (inactive); in the experiment with RXF 393, 10.8 µM (inactive); in the experiment with U-251 it was 17.7 µM (inactive); in the experiment on SN12C, 17.3 µM (inactive); with HT-29 it was 6.04 µM (inactive). The GI50 was 4.74 µM (inactive) in the experiment with SF-295; 22 µM (inactive) in the experiment with OVCAR-5; 13.8 µM (inactive) in the experiment with NCI-H460; 12.2 µM (inactive) in the experiment with NCI/ADR-RES; 10 µM (inactive) in the experiment with 786-0; 19.5 µM (inactive) in the experiment on Hs-578T. Also, the GI50 was 18.6 µM (inactive) in the experiment with COLO 205; 0.895 µM (active) in the experiment on NCI-H522; 5.4 µM (inactive) in the experiment on RPMI-8226; 7.13 µM (inactive) with HL-60; 11.7 µM (inactive) in the experiment on NCI-H23; 6.84 µM (inactive) in the experiment on SW-620. The GI50 is 6.58 µM (inactive) in the experiment with PC-3 and 31.7 µM (inactive) in the experiment on SNB-19.

Take `Cc1ccc(N/N=C2\C3=C(CCC(C)(C)O3)C(=O)c3ccccc32)cc1`: the GI50 with TK-10 was 26.8 µM (inactive); in the experiment with KM12, 21.8 µM (inactive); with RXF 393, 32.4 µM (inactive); with U-251, 37.5 µM (inactive); in the experiment with SN12C it was 14.6 µM (inactive); with HT-29, 18.8 µM (inactive). In addition, the GI50 in the experiment with SF-295 is 14.7 µM (inactive); in the experiment with OVCAR-5, 18.4 µM (inactive); in the experiment on NCI-H460, 17.4 µM (inactive); with NCI/ADR-RES, 25.6 µM (inactive); in the experiment on 786-0 it was 28 µM (inactive); in the experiment on Hs-578T, 11.6 µM (inactive). Besides, the GI50 was 24.7 µM (inactive) with COLO 205; 32.4 µM (inactive) in the experiment on NCI-H522; 26.5 µM (inactive) in the experiment with RPMI-8226; 15.2 µM (inactive) with HL-60; 10.8 µM (inactive) with NCI-H23; 33.8 µM (inactive) with SW-620. Also, the GI50 was 37.6 µM (inactive) in the experiment with PC-3 and 20.8 µM (inactive) with SNB-19.

Consider `CCCC(=O)N[C@H]1CCc2cc(OC)c(OC)c(OC)c2-c2ccc(SC)c(=O)cc21`, for which the GI50 is < 0.0411 µM (active) with TK-10; < 0.01 µM (active) in the experiment on KM12; 0.175 µM (active) with RXF 393; < 0.01 µM (active) in the experiment on U-251; < 0.01 µM (active) in the experiment on SN12C; < 0.01 µM (active) in the experiment on HT-29. The GI50 was < 0.01 µM (active) with SF-295; 0.278 µM (active) in the experiment with OVCAR-5; < 0.01 µM (active) in the experiment on NCI-H460; 0.016 µM (active) in the experiment with NCI/ADR-RES; < 0.01 µM (active) with 786-0; < 0.01 µM (active) in the experiment with Hs-578T. Further, the GI50 in the experiment on COLO 205 was < 0.01 µM (active); in the experiment with NCI-H522, < 0.01 µM (active); in the experiment on RPMI-8226, 0.0631 µM (active); in the experiment with HL-60 it was < 0.01 µM (active); in the experiment with NCI-H23 it was < 0.01 µM (active); in the experiment on SW-620, < 0.01 µM (active). Besides, the GI50 in the experiment on PC-3 and in the experiment with SNB-19 was < 0.01 µM (active) each time.

Take `CN(C)CCn1nc(N)c2nc3cc(C(F)(F)F)ccc3nc21`: the GI50 was > 100 µM (inactive) in the experiment on TK-10; > 100 µM (inactive) in the experiment with KM12; 26.4 µM (inactive) in the experiment on RXF 393; > 100 µM (inactive) in the experiment with U-251; > 100 µM (inactive) with SN12C; > 100 µM (inactive) in the experiment on HT-29. In addition, the GI50 in the experiment with SF-295 was > 100 µM (inactive); with OVCAR-5, > 100 µM (inactive); with NCI-H460 it was 51.4 µM (inactive); in the experiment on NCI/ADR-RES, > 100 µM (inactive); in the experiment on 786-0, > 100 µM (inactive); in the experiment with Hs-578T, 88.7 µM (inactive). For the same compound, the GI50 is 27.7 µM (inactive) with COLO 205; 42 µM (inactive) in the experiment with NCI-H522; > 100 µM (inactive) in the experiment with RPMI-8226; 34.6 µM (inactive) with HL-60; > 100 µM (inactive) with NCI-H23; 81.1 µM (inactive) in the experiment on SW-620. Also, the GI50 in the experiment on PC-3 and in the experiment on SNB-19 was > 100 µM (inactive) throughout.

For `Oc1c(CN2CCN(c3ccccc3)CC2)cc(Br)c2cccnc12`, the GI50 was 3.61 µM (inactive) in the experiment with TK-10; 1.56 µM (inactive) in the experiment with KM12; 1.46 µM (inactive) with RXF 393; 0.671 µM (active) with U-251; 0.991 µM (active) in the experiment with SN12C; 10.9 µM (inactive) with HT-29. Besides, the GI50 was 1.21 µM (inactive) with SF-295; 4.07 µM (inactive) in the experiment with OVCAR-5; 0.244 µM (active) in the experiment with NCI-H460; 0.206 µM (active) with NCI/ADR-RES; 1.4 µM (inactive) in the experiment with 786-0; 3.33 µM (inactive) in the experiment with Hs-578T. The GI50 in the experiment on COLO 205 is 29.6 µM (inactive); in the experiment with NCI-H522, 0.555 µM (active); with RPMI-8226, 0.361 µM (active); in the experiment with HL-60 it was 0.485 µM (active); in the experiment with NCI-H23, 1.82 µM (inactive); with SW-620, 1.4 µM (inactive). Also, the GI50 in the experiment with PC-3 is 4.22 µM (inactive); in the experiment with SNB-19, 1.69 µM (inactive).

`Clc1ccccc1C(Nc1cnccn1)Nc1cnccn1`: the GI50 in the experiment on TK-10, in the experiment on KM12, in the experiment on RXF 393, with U-251, with SN12C and in the experiment on HT-29 was > 100 µM (inactive) each time. For the same compound, the GI50 in the experiment on SF-295, in the experiment on OVCAR-5, in the experiment with NCI-H460, in the experiment on NCI/ADR-RES, with 786-0 and with Hs-578T was > 100 µM (inactive) each time. Moreover, the GI50 with COLO 205 was > 100 µM (inactive); with NCI-H522, > 100 µM (inactive); in the experiment with RPMI-8226, 35.1 µM (inactive); in the experiment with HL-60 it was 0.692 µM (active); in the experiment on NCI-H23, > 100 µM (inactive); in the experiment with SW-620 it was 4.36 µM (inactive). Besides, the GI50 in the experiment with PC-3 and with SNB-19 was > 100 µM (inactive) each time.

Consider `CC(C)[C@@H]1CC[C@@H](C)C[C@H]1OC(=O)/C=C1\C(C(=O)O[C@@H]2C[C@H](C)CC[C@H]2C(C)C)[C@H]2C=C[C@@H]1O2` (stereo not given in full), for which the GI50 with TK-10 is > 100 µM (inactive); in the experiment with KM12 it was 87.7 µM (inactive); in the experiment with RXF 393, > 100 µM (inactive); in the experiment on U-251, 51.4 µM (inactive); in the experiment with SN12C it was 57.8 µM (inactive); with HT-29 it was 33.4 µM (inactive). For the same compound, the GI50 in the experiment with SF-295 was 25.2 µM (inactive); in the experiment with OVCAR-5, > 100 µM (inactive); in the experiment with NCI-H460, 37.9 µM (inactive); in the experiment with NCI/ADR-RES, > 100 µM (inactive); with 786-0, 66.5 µM (inactive); with Hs-578T, 72.3 µM (inactive). Also, the GI50 in the experiment on COLO 205 was 64.3 µM (inactive); in the experiment with NCI-H522, 22.5 µM (inactive); in the experiment with RPMI-8226, 56.1 µM (inactive); in the experiment on HL-60 it was 22.9 µM (inactive); in the experiment with NCI-H23, 36.7 µM (inactive); in the experiment with SW-620, 29.9 µM (inactive). Further, the GI50 in the experiment on PC-3 is 37.3 µM (inactive); with SNB-19 it was > 100 µM (inactive).

As to `COC(=O)/C=C1\C(=O)Nc2ccc(Br)cc21`, the GI50 with TK-10 is 1.56 µM (inactive); in the experiment with KM12, 2.53 µM (inactive); with RXF 393, 1.54 µM (inactive); in the experiment with U-251 it was 2.03 µM (inactive); in the experiment on SN12C it was 1.62 µM (inactive); with HT-29 it was 1.73 µM (inactive). In addition, the GI50 was 2.3 µM (inactive) in the experiment on SF-295; 1.54 µM (inactive) with OVCAR-5; 2.25 µM (inactive) with NCI-H460; 1.91 µM (inactive) in the experiment with NCI/ADR-RES; 1.48 µM (inactive) in the experiment with 786-0; 4.04 µM (inactive) in the experiment on Hs-578T. For the same compound, the GI50 in the experiment with COLO 205 was 1.67 µM (inactive); with NCI-H522 it was 0.743 µM (active); in the experiment with RPMI-8226, 1.41 µM (inactive); with HL-60, 1.59 µM (inactive); in the experiment on NCI-H23, 1.54 µM (inactive); with SW-620 it was 1.2 µM (inactive). For the same compound, the GI50 is 1.43 µM (inactive) in the experiment with PC-3 and 3.24 µM (inactive) in the experiment with SNB-19.
